Results: patent publication US12376590B2, “Compositions comprising pyridine carboxylate herbicides and azole carboxylate safeners” (Corteva Agriscience LLC, priority 2018, dated 2025)
Several values for one entry are separate records, joined by “and”; a condition that tells them apart may be missing. Identical values can stand only once.

What was measured:
Assay in all cases: Greenhouse postemergence herbicidal safening trial, visual injury after 20-22 d
velvetleaf (ABUTH) = type: in vivo, Abutilon theophrasti
Text: (§1) Greenhouse Trial Methodology—Evaluation of Postemergence Herbicidal Safening in Crops
(§2) Seeds of the desired test plant species were planted in a 90:10% v/v (volume/volume) mixture of PRO-MIX® BX (Premier Tech Horticulture, Quakertown, PA, USA) and PROFILE® GREENS GRADE™ (Profile Products LLC, Buffalo Grove, IL, USA) planting mixture, which typically has a pH of 5.2 to 6.2 and an organic matter content of at least 50 percent, in plastic pots with a surface area of 103.2 square centimeters (cm^2). When required to ensure good germination and healthy plants, a fungicide treatment and/or other chemical or physical treatment was applied. The plants were grown for 7-36 days (d) in a greenhouse with an approximate 14-hour (h) photo-period which was maintained at about 23° C. during the day and 22° C. during the night. Nutrients and water were added on a regular basis and supplemental lighting was provided with overhead metal halide 1000-Watt lamps as necessary. The plants were employed for testing when they reached the second or third true leaf stage.
(§3) Emulsifiable concentrates of each of each pyridine carboxylate herbicide (Compound A or Compound B) were prepared at 100 grams acid equivalent per liter (g ae/L). An aliquot of each emulsifiable concentrate was placed in a 25 mL glass vial and diluted with an aqueous mixture of 1.25% (v/v) ACTIROB® B esterified rapeseed oil (Bayer Crop Science, Research Triangle Park, NC, USA) or MSO® Concentrate with LECI-TECH® methylated soybean oil (Loveland Products, Loveland, CO, USA) to obtain concentrated stock solutions at the highest application rate for each herbicide, based upon a 12 milliliter (mL) application volume at a rate of 187 liters per hectare (L/ha). The concentrated stock solutions were further diluted with an aqueous mixture of 1.25% v/v ACTIROB® B or MSO® Concentrate with LECI-TECH® to obtain stock solutions at reduced application rates for each herbicide. Spray solutions of the herbicide combinations (Compound A or Compound B plus safener) were prepared by adding weighed amounts or aliquots of the azole carboxylate safener to the stock solutions of Compound A or Compound B to form 12-mL spray solutions in two-way combinations.
(§4) The spray solutions were applied to the plant material with an overhead Mandel track sprayer equipped with 8002E nozzles calibrated to deliver 187 L/ha over an application area of 0.503 square meters (m^2) at a spray height of 18 inches (43 centimeters (cm)) above the average plant canopy. Control plants were sprayed in the same manner with the solvent blank. All herbicide (component a) application rates are given as “g ae/ha” and all safener (component b) application rates are given as “g ai/ha.”
(§5) The treated plants and control plants were placed in a greenhouse as described above and watered by sub-irrigation to prevent wash-off of the test compounds. After 20-22 d, the condition of the test plants as compared with that of the control plants was determined visually and scored on a scale of 0 to 100 percent where 0 corresponds to no injury and 100 corresponds to complete kill.

spring wheat (TRZAS) = type: in vivo, Triticum aestivum; conditions: applied alone
Text: as §1, §2, §3, §4, §5

winter wheat (TRZAW) = type: in vivo, Triticum aestivum
Text: as §1, §2, §3, §4, §5

wild pansy (VIOTR) = type: in vivo, Viola tricolor
Text: as §1, §2, §3, §4, §5

common rice (ORYSA) = type: in vivo, Oryza sativa
Text: as §1, §2, §3, §4, §5

common sunflower (HELAN) = type: in vivo, Helianthus annuus
Text: as §1, §2, §3, §4, §5

nutsedge (CYPES) = type: in vivo, Cyperus esculentus
Text: as §1, §2, §3, §4, §5

[1] = tested on: common lambsquarters (CHEAL); type: in vivo, Chenopodium album L.
Text: as §1, §2, §3, §4, §5

wild buckwheat (POLCO) = type: in vivo, Polygonum convolvulus
Text: as §1, §2, §3, §4, §5

Russian thistle (SASKR) = type: in vivo, Salsola kali; conditions: applied alone, 20 g/ha
Text: as §1, §2, §3, §4, §5

kochia (KCHSC) = type: in vivo, Kochia scoparia
Text: as §1, §2, §3, §4, §5

[2] = tested on: herbicide-resistant kochia (KCHSC-R); type: in vivo, Kochia scoparia
Text: as §1, §2, §3, §4, §5

[3] = tested on: ivyleaf morningglory (IPOHE); type: in vivo, Ipomoea hederacea
Text: as §1, §2, §3, §4, §5

maize (ZEAMX) = type: in vivo, Zea mays
Text: as §1, §2, §3, §4, §5

blackgrass (ALOMY) = type: in vivo, Alopecurus myosuroides
Text: as §1, §2, §3, §4, §5

wild chamomile (MATCH) = type: in vivo, Matricaria chamomilla; conditions: applied alone, 20 g/ha
Text: as §1, §2, §3, §4, §5

Italian ryegrass (LOLMU) = type: in vivo, Lolium multiflorum
Text: as §1, §2, §3, §4, §5

spring barley (HORVS) = type: in vivo, Hordeum vulgare; conditions: applied alone
Text: as §1, §2, §3, §4, §5

giant foxtail (SETFA) = type: in vivo, Setaria faberi
Text: as §1, §2, §3, §4, §5

wild oat (AVEFA) = type: in vivo, Avena fatua
Text: as §1, §2, §3, §4, §5

Canada horseweed (ERICA) = type: in vivo, Erigeron canadensis
Text: as §1, §2, §3, §4, §5

soybean (GLXMA) = type: in vivo, Glycine max
Text: as §1, §2, §3, §4, §5

pigweed (AMARE) = type: in vivo, Amaranthus retroflexus
Text: as §1, §2, §3, §4, §5

large crabgrass (DIGSA) = type: in vivo, Digitaria sanguinalis
Text: as §1, §2, §3, §4, §5

Johnson grass (SORHA) = type: in vivo, Sorghum halepense
Text: as §1, §2, §3, §4, §5

[4] = tested on: Chinese sprangletop (LEFCH); type: in vivo, Leptochloa chinensis
Text: as §1, §2, §3, §4, §5

barnyardgrass (ECHCG) = type: in vivo, Echinochloa crus-galli
Text: as §1, §2, §3, §4, §5

Canada thistle (CIRAR) = type: in vivo, Cirsium arvense
Text: as §1, §2, §3, §4, §5

winter rape (BRSNW) = type: in vivo, Brassica napus
Text: as §1, §2, §3, §4, §5

N#CCOC(=O)c1nc(-c2ccc3cc[nH]c3c2F)c(F)c(N)c1Cl [Compound A, cyanomethyl 4-amino-3-chloro-5-fluoro-6-(7-fluoro-1H-indol-6-yl)pyridine-2-carboxylate]
% visual injury Ob (velvetleaf (ABUTH); Compound A 20 g/ha): 95%
% visual injury Ob (velvetleaf (ABUTH); applied alone, 20 g/ha): 95%
% visual injury Ob (spring wheat (TRZAS); 20 g/ha): 25%
% visual injury Ob (spring wheat (TRZAS); 40 g/ha): 23% and 30%
% visual injury Ob (winter wheat (TRZAW); Compound A 20 g/ha): 25%
% visual injury Ob (winter wheat (TRZAW); applied alone, 20 g/ha): 25%
% visual injury Ob (winter wheat (TRZAW); applied alone, 40 g/ha): 25%
% visual injury Ob (wild pansy (VIOTR); Compound A 20 g/ha): 30%
% visual injury Ob (wild pansy (VIOTR); applied alone, 20 g/ha): 30%
% visual injury Ob (common rice (ORYSA); Compound A 20 g/ha): 10%
% visual injury Ob (common rice (ORYSA); applied alone, 20 g/ha): 10%
% visual injury Ob (common sunflower (HELAN); Compound A 20 g/ha): 95%
% visual injury Ob (common sunflower (HELAN); applied alone, 20 g/ha): 95%
% visual injury Ob (common sunflower (HELAN); applied alone, 40 g/ha): 100%
% visual injury Ob (nutsedge (CYPES); Compound A 20 g/ha): 30%
% visual injury Ob (nutsedge (CYPES); applied alone, 20 g/ha): 30%
% visual injury Ob (nutsedge (CYPES); applied alone, 40 g/ha): 73%
% visual injury Ob ([1]; Compound A 20 g/ha): 88%
% visual injury Ob ([1]; applied alone, 20 g/ha): 88%
% visual injury Ob (wild buckwheat (POLCO); Compound A 20 g/ha): 100%
% visual injury Ob (wild buckwheat (POLCO); applied alone, 20 g/ha): 100%
% visual injury Ob (Russian thistle (SASKR)): 60%
% visual injury Ob (kochia (KCHSC); Compound A 20 g/ha): 97%
% visual injury Ob (kochia (KCHSC); applied alone, 20 g/ha): 97%
% visual injury Ob ([2]; Compound A 20 g/ha): 90%
% visual injury Ob ([2]; applied alone, 20 g/ha): 90%
% visual injury Ob ([3]; Compound A 20 g/ha): 0%
% visual injury Ob ([3]; applied alone, 20 g/ha): 0%
% visual injury Ob (maize (ZEAMX); Compound A 20 g/ha): 13%
% visual injury Ob (maize (ZEAMX); applied alone, 20 g/ha): 13%
% visual injury Ob (maize (ZEAMX); applied alone, 40 g/ha): 55%
% visual injury Ob (blackgrass (ALOMY); Compound A 20 g/ha): 0%
% visual injury Ob (blackgrass (ALOMY); applied alone, 20 g/ha): 0%
% visual injury Ob (wild chamomile (MATCH)): 50%
% visual injury Ob (Italian ryegrass (LOLMU); Compound A 20 g/ha): 5%
% visual injury Ob (Italian ryegrass (LOLMU); applied alone, 20 g/ha): 5%
% visual injury Ob (spring barley (HORVS); 20 g/ha): 0%
% visual injury Ob (spring barley (HORVS); 40 g/ha): 17%
% visual injury Ob (giant foxtail (SETFA); Compound A 20 g/ha): 65%
% visual injury Ob (giant foxtail (SETFA); applied alone, 20 g/ha): 65%
% visual injury Ob (wild oat (AVEFA); Compound A 20 g/ha): 0%
% visual injury Ob (wild oat (AVEFA); applied alone, 20 g/ha): 0%
% visual injury Ob (Canada horseweed (ERICA); Compound A 20 g/ha): 95%
% visual injury Ob (Canada horseweed (ERICA); applied alone, 20 g/ha): 95%
% visual injury Ob (soybean (GLXMA); Compound A 20 g/ha): 100%
% visual injury Ob (soybean (GLXMA); applied alone, 20 g/ha): 100%
% visual injury Ob (pigweed (AMARE); Compound A 20 g/ha): 93%
% visual injury Ob (pigweed (AMARE); applied alone, 20 g/ha): 93%
% visual injury Ob (pigweed (AMARE); applied alone, 40 g/ha): 100%
% visual injury Ob (large crabgrass (DIGSA); Compound A 20 g/ha): 30%
% visual injury Ob (large crabgrass (DIGSA); applied alone, 20 g/ha): 30%
% visual injury Ob (Johnson grass (SORHA); Compound A 20 g/ha): 0%
% visual injury Ob (Johnson grass (SORHA); applied alone, 20 g/ha): 0%
% visual injury Ob ([4]; Compound A 20 g/ha): 60%
% visual injury Ob ([4]; applied alone, 20 g/ha): 60%
% visual injury Ob (barnyardgrass (ECHCG); Compound A 20 g/ha): 85%
% visual injury Ob (barnyardgrass (ECHCG); applied alone, 20 g/ha): 85%
% visual injury Ob (Canada thistle (CIRAR); Compound A 20 g/ha): 95%
% visual injury Ob (Canada thistle (CIRAR); applied alone, 20 g/ha): 95%
% visual injury Ob (winter rape (BRSNW); Compound A 20 g/ha): 85%
% visual injury Ob (winter rape (BRSNW); applied alone, 20 g/ha): 95% and 85%
